The target in the first assay is agonist-induced platelet aggregation (Homo sapiens, UniProt P05106+P08514). The experiment in a line: Platelet Aggregation Assay in platelet-rich plasma (PRP). In kind it is cell-based. To be noted: without esterase. As for the experimental part: Platelet Aggregation Assay: Venous blood was obtained from the arm of a healthy human donor who was drug-free and aspirin-free for at least two weeks prior to blood collection. Blood was collected into 10 ml citrated Vacutainer tubes. The blood was centrifuged for 15 minutes at 150 x g at room temperature, and platelet-rich plasma (PRP) was removed. The remaining blood was centrifuged for 15 minutes at 1500 x g at room temperature, and platelet-poor plasma (PPP) was removed. Samples were assayed on a aggregometer (PAP-4 Platelet Aggregation Profiler), using PPP as the blank (100% transmittance). 200 µl of PRP was added to each micro test tube, and transmittance was set to 0%. 20 µ of various agonists (ADP, collagen, arachidonate, epinephrine, thrombin) were added to each tube, and the aggregation profiles were plotted (% transmittance versus time). The results are expressed as % inhibition of agonist-induced platelet aggregation. For the IC50 evaluation, the test compounds were added at various concentrations prior to the activation of the platelets.
agonist-induced platelet aggregation, sequence (P08514 with tags, fused parts or gaps): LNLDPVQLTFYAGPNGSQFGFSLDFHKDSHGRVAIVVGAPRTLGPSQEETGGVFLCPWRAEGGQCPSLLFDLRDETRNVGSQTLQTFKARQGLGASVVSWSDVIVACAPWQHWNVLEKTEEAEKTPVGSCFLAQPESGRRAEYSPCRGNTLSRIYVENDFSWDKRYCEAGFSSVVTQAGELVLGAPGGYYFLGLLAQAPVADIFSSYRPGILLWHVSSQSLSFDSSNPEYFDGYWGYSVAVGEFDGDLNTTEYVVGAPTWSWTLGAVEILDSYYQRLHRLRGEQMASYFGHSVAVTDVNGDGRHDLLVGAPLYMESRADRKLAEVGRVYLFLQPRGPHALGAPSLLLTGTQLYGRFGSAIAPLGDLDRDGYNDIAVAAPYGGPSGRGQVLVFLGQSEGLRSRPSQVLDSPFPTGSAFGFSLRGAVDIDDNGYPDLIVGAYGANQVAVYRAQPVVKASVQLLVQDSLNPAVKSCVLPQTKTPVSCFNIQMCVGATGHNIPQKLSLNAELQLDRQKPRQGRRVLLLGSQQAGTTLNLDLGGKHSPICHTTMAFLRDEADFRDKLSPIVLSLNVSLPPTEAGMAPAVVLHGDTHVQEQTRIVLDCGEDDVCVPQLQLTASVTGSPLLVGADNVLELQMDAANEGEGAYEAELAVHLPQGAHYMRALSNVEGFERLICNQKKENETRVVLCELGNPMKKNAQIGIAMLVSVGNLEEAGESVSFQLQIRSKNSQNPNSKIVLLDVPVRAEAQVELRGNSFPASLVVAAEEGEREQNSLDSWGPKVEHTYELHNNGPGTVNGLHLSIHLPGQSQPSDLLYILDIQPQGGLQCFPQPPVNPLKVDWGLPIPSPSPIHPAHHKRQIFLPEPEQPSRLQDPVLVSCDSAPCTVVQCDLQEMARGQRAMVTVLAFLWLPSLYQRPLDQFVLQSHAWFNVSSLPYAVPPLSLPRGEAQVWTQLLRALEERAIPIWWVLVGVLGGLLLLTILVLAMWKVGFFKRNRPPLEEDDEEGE
agonist-induced platelet aggregation, sequence (P05106 27-788): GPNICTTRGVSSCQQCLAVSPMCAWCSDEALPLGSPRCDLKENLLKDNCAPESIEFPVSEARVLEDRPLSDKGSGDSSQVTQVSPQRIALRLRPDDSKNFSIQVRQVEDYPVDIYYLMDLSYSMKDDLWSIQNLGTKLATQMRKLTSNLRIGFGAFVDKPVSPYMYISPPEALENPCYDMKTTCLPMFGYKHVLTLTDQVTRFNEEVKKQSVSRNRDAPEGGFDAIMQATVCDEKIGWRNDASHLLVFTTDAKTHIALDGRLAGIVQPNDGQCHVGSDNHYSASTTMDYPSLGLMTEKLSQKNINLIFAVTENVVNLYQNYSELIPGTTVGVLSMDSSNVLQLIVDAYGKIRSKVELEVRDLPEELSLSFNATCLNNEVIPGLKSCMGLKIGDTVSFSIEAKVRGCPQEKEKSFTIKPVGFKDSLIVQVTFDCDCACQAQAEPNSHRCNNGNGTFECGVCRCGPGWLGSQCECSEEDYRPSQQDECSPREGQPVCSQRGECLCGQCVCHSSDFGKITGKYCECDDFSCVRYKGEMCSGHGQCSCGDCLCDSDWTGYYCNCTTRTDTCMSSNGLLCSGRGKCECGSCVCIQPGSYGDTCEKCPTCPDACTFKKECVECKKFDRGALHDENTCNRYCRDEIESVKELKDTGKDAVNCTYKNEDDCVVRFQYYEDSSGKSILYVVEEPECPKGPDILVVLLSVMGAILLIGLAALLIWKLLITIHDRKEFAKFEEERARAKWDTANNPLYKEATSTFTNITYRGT
Table A below sets forth the antiplatelet activity of representative compounds of the present invention. The indicated compounds were tested for their ability to inhibit platelet aggregation (using platelet rich plasma (PRP)). […]
human platelet rich plasma, sequence (P08514 with tags, fused parts or gaps): as the sequence (P08514 with tags, fused parts or gaps) above
human platelet rich plasma, sequence (P05106 27-788): as the sequence (P05106 27-788) above
As to `O=C(O)CCCN1C(=O)CC2(CC(CCCC3CCNCC3)=NO2)C1=O` (stereo not shown) [Example 373], the half-inhibitory concentration (IC50) (as a rule, the concentration that inhibits the measured activity by half) fell in the range of 10 to 50 µM.

A further assay has as its target human platelet rich plasma (Homo sapiens, UniProt P05106+P08514). The experiment in a line: Platelet Aggregation Assay, ester prodrugs preincubated with porcine liver esterase. In kind it is cell-based. To be noted: platelet rich plasma (PRP). As for the experimental part: Aliquots are then diluted in 0.1 M Tris, pH 7.4, to the desired concentrations. Aliquots of 20 µl of the esterase pretreated prodrugs are added to 200 µl of human platelet rich plasma. […] Platelet aggregation was allowed to proceed for 5 minutes. Percent inhibition is calculated using percent aggregation in the presence of the test compound divided by percent aggregation of control, times 100. This value is subtracted from 100, yielding percent inhibition. Calculation of IC50 is performed on a Texas Instruments TI59 with an IC50 program.
Turning to `COC(=O)C(CNC(=O)CC1CC(c2ccc(C(=N)N)cc2)=NO1)NC(=O)c1ccc(-c2ccccc2)cc1` (stereo not shown) [Example 523], the IC50 was below 10 µM. On the same count and under the same terms, next, `COC(=O)C(CNC(=O)CC1CC(c2ccc(C(=N)N)cc2)=NO1)NS(=O)(=O)c1ccc(-c2ccccc2)cc1` (stereo not shown) [Example 546]: below 10 µM. Same read-out and setting: the same measure for “Methyl N^2-(m-toluenesulfonyl)-N^3-[3-(2-amidinopyrid-5-yl)isoxazolin-5-ylacetyl]-S-2,3-diaminopropionate bis hydrochloric acid salt [Example 516]”: below 10 µM.

For the compound “Methyl N^2-(m-toluenesulfonyl)-N^3-[3-(3-amidinopyrid-6-yl)isoxazolin-5-ylacetyl]-S-2,3-diaminopropionate bis hydrochloric acid salt [Example 514]”, the 50% inhibitory concentration (IC50) was below 10 µM.

In the case of “Methyl N^2-(n-butyloxycarbonyl)-N^3-[3-(2-amidinopyrid-5-yl) isoxazolin-5-ylacetyl]-S-2,3-diaminopropionate bis hydrochloric acid salt [Example 515]”, the IC50 is below 10 µM. Still for that read-out and setting: the same measure for “Methyl N^2-(n-butyloxycarbonyl)-N^3-[3-(3-amidinopyrid-6-yl) isoxazolin-5-ylacetyl]-S-2,3-diaminopropionate bis hydrochloric acid salt [Example 513]”: below 10 µM.

Source of the values: patent EP0730590B1, “ISOXAZOLINE AND ISOXAZOLE FIBRINOGEN RECEPTOR ANTAGONISTS” (Dupont Pharmaceuticals Company, priority 1993, dated 1995).
